Results: PubChem BioAssay AID2252 (Southern Research Specialized Biocontainment Screening …, 2010)

System: THP-1 viability, CellTiter-Glo luminescence, 72 h
Experiment: PubChem AID 2252

SMILES | EC50
O=C(N/N=C/c1ccccc1O)C1SCCCS1 | 26.1 µM
CN1CCC(=C2c3ccccc3C=Cc3ccccc32)CC1 | 41.3 µM
CN1CCN(c2ccc(NC(=O)c3ccc(-c4ccc(Br)cc4)o3)cc2)CC1 | 7.84 µM
Cn1cc(C(=O)N/N=C/C(Br)=C/c2ccccc2)ccc1=O | 14.5 µM
CC(C)(C)c1ccc(NC(=O)NCc2ccco2)cc1 | 13.3 µM
Cn1c(-c2ccc(Cl)cc2)cnc1N | 33.8 µM
Fc1cccc(NC(=S)NCc2ccc(Cl)cc2)c1 | 46.7 µM
O=C(CCN1CCOCC1)N/N=C/c1cc(Br)cc(Br)c1O | 24.8 µM
CCN1CCN(CCNC(=O)c2ccc(/C=C3/Sc4ccccc4N(Cc4cccc(Cl)c4)C3=O)cc2)CC1 | 8.93 µM
Nc1nc2ccccc2n1CCOc1ccccc1Cl | 16.6 µM
CCCOc1ccc(CSC2=NCCN2)cc1[N+](=O)[O-] | 20.8 µM
CCN(CC)CCOC(=O)c1ccc(N/C=C(/C#N)c2nc(-c3ccc(OC)c(OC)c3)cs2)cc1 | 13.5 µM
O=C(Cc1cccs1)N/N=C\c1ccc([N+](=O)[O-])s1 | 12.5 µM
COC(=O)C1=C(C(=O)OC)SC(=C2C(=S)C(C)(C)N(C(=O)C3CC3)c3ccccc32)S1 | 30.9 µM
Oc1ccccc1C(Nc1nccs1)c1ccc2cccnc2c1O (stereo not given) | 2.11 µM
Cc1ccc2nc(/C(C#N)=C\c3ccc([N+](=O)[O-])o3)[nH]c2c1 | 1.25 µM
O=C(CCc1ccccc1)NNC(=S)NC(=O)c1ccccc1 | 10.9 µM
O=C(O)CC/C(=C\c1ccccc1[N+](=O)[O-])c1nc2ccccc2s1 | < 0.1 µM
CCC(C)(c1ccc(C(=O)OC)s1)c1ccc(C(=O)OC)s1 | 49.7 µM
CCc1nnc(NS(=O)(=O)c2ccc(N=Cc3c(C)[nH]n(-c4ccc(C)cc4)c3=O)cc2)s1 | 29.3 µM
Fc1ccc(Nc2nc(NCc3ccco3)c3ccccc3n2)cc1 | 5.9 µM
c1cc2c(cc1Oc1nc(N3CCOCC3)nc(N3CCOCC3)n1)OCO2 | < 0.1 µM
CC(C)CCC(CCNCc1ccccn1)c1ccc(Cl)cc1 (stereo not given) | 16.2 µM

SMILES | EC50
Cc1cc(Cl)c(OCCCNCc2ccccc2)c(Br)c1 | 21.4 µM
CC(C)N1CCc2c(sc(NC(=O)c3ccc(S(=O)(=O)N4CCc5ccccc54)cc3)c2C(N)=O)C1 | 8.45 µM
COc1ccc(Nc2ccnc3ccccc23)cc1 | 30.7 µM
COC(=O)c1ccc(Cn2c(O)c(N=NC(N)=S)c3ccccc32)o1 | 12.7 µM
c1ccc2c(c1)CCN(c1nc3ccccc3n3cnnc13)C2 | 24.8 µM
N#Cc1ccc(C2=NC(C(F)(F)F)(C(F)(F)F)c3c(n(Cc4ccco4)c(=O)[nH]c3=O)N2)cc1 | 31.2 µM
O=C(NC(=S)NNC(=O)c1cnccn1)c1ccc(F)cc1 | 5.51 µM
O=C(N/N=C/c1cc(Br)ccc1O)c1ccccc1Cl | 1.49 µM
Cc1ccc(-n2c(-c3ccc(Br)cc3)c[n+]3c2CCc2ccc4cccnc4c2-3)cc1 | 0.76 µM
Brc1ccc2c(c1)C(OC1CN3CCC1CC3)c1ccccc1CS2 (stereo not given) | 8.31 µM
Fc1ccc(NC(=S)Nc2cc(-c3ccccc3)[nH]n2)cc1Cl | 41.9 µM
COc1ccc2[nH]c3c(C)c4ccncc4c(C)c3c2c1 | 1.45 µM
Cc1ccc(Cn2c(=N)c(C(=O)NCc3ccco3)cc3c(=O)n4ccccc4nc32)cc1 | 42.6 µM
Nc1nc(Nc2ccccc2)nc2ccccc12 | 3.32 µM
O=C(NC(=S)NNC(=O)c1ccccc1O)c1ccco1 | 17.2 µM
O=C(/C=C/c1ccccc1)c1cc(Br)ccc(=O)c1O | 10.5 µM
CCCCNCCCOc1cccc(Cl)c1Cl | 28.2 µM
C[n+]1c2n(c3ccccc31)N=C(c1ccc(-c3ccccc3)cc1)CS2 | 3.89 µM
Cc1ccc2c(c1)C1CN(C)CCC1N2Sc1ccccc1[N+](=O)[O-] (stereo not given) | 21.1 µM
C#CCOCCOCCOCCNc1nc(N2CCN(C(=O)CCCCCCCCCCNC(=O)[C@H]([C@@H](C)CC)n3cc(CCCCN=C(N)N)nn3)CC2)nc(N2CCN(C(=O)CCCCCCCCCCNC(=O)[C@H](CCCCN)n3cc(C)nn3)CC2)n1 | 3.57 µM
OCCN1CCN(CCCN2c3ccccc3Sc3ccc(Cl)cc32)CC1 | 12.5 µM
Cc1cccc(Nc2nc(NCc3ccco3)c3ccccc3n2)c1 | 4.43 µM
